Data published in patent US8993552B2, “Compositions and methods for treatment of leukemia” (The Regents of The University of Michigan, priority 2009, dated 2015).

Key:
[1] = molecular target: T1, menin-MLL interaction (Homo sapiens (Human), UniProt O00255); assay: Fluorescence polarization (FP) competition assay with fluorescein-labeled MLL peptide; type: binding;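 also: Read-out is fluorescence anisotropy of fluorescein-labeled MLL peptide bound to menin, inhibitors displace the peptide and lower anisotropy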
[2] = molecular target: T1, menin-MLL interaction; assay: HTRF (TR-FRET) assay, His-tagged menin and biotinylated MLL peptide; type: binding
[3] = molecular target: menin (Homo sapiens (Human), UniProt O00255); assay: NMR STD / competition STD binding experiments; details: 2.5 μM menin
[4] = tested on: Hep-G2 (liver) cell line; assay: MTT viability assay, liver cell line
[5] = tested on: HK-2 (kidney) cell line; assay: MTT viability assay, kidney cell line
[6] = Table 1, NA = no activity, NS = no saturation on titration curve, read-out: IC50 in FP assay with FLSN-MLL
[7] = Table 1, NA = no activity, NS = no saturation on titration curve
[8] = Table 3, NA = no activity, read-out: IC50 in FP assay with FLSN-MLL
[9] = Table 4, NA = no activity, NS not defined in this table, read-out: IC50 in FP assay with FLSN-MLL
[10] = Table 2, FP assay, read-out: IC50

T1 sequence (O00255 whole entry): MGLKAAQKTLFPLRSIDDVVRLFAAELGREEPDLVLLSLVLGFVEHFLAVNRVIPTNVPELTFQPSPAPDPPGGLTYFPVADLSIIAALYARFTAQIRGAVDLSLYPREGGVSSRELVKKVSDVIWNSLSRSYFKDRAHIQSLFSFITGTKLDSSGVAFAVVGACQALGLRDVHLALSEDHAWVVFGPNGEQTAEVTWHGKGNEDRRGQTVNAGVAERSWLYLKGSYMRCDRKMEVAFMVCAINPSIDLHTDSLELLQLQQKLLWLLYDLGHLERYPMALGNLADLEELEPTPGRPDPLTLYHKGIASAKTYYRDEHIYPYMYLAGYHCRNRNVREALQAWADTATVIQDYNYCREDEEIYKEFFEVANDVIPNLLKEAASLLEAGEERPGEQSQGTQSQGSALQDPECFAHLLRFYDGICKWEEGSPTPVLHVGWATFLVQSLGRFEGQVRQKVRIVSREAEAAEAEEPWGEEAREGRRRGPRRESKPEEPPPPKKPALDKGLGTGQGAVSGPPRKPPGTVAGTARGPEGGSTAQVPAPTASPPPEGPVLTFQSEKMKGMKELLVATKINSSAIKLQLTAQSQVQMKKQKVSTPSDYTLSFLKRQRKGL
Chain of menin (O00255 whole entry): as above

Question: For CCc1cc2c(N3CCN(Cc4ccccc4)CC3)ncnc2s1 [Compound 2], which IC50 [1, 6] is on record?
Answer: 42 µM

Question: And the IC50 ([2]; Table 1)?
Answer: 85 µM

Question: How did the IC50 [1, 6] turn out when c1cn(CCCNc2ncnc3sc4c(c23)CCCCC4)cn1 [Compound 3] was run?
Answer: 83 µM

Question: And the IC50 ([2]; Table 1)?
Answer: 35 µM

Question: CCc1cc2c(N3CCN(C)CC3)ncnc2s1 [Compound 7] was tested. Which IC50 [1] did it give?
Answer: 170 µM

Question: How did the IC50 [1, 6] turn out when CCc1cc2c(N3CCN(c4ccccn4)CC3)ncnc2s1 [Compound 8] was run?
Answer: 60 µM

Question: With CCc1cc2c(N3CCN(c4ncccn4)CC3)ncnc2s1 [Compound 10] as the compound, how does the IC50 [1, 6] read?
Answer: 250 µM

Question: How did the IC50 [1, 6] turn out when CN1CCN(c2ncnc3oc(-c4ccccc4)c(-c4ccccc4)c23)CC1 [Compound 11] was run?
Answer: 500 µM

Question: With CCOC(=O)c1sc2nc(CN3CCOCC3)nc(N3CCN(c4nccs4)CC3)c2c1C [Compound 12] as the compound, how does the “IC50 in FP assay with FLSN-MLL” value [1, 7] read?
Answer: NA up to 100 μM

Question: Cc1csc(N2CCN(c3nc(CN4CCOCC4)nc4sc5c(c34)CCC(C)C5)CC2)n1 (stereo not shown) [Compound 14] was tested. Which IC50 [1, 6] did it give?
Answer: 250 µM

Question: How did the IC50 [1, 6] turn out when Cc1csc(N2CCN(c3nc(C)nc4sc5c(c34)CCCC5)CC2)n1 [Compound 15] was run?
Answer: 49 µM

Question: How did the IC50 [1, 6] turn out when Cc1c(-c2ccccc2)sc2ncnc(N3CCN(c4nccs4)CC3)c12 [Compound 16] was run?
Answer: 71 µM

Question: CCN(CC)Cc1nc(N2CCN(c3nccs3)CC2)c2c(C)c(C)sc2n1 [Compound 17] was tested. Which “IC50 in FP assay with FLSN-MLL” value [1, 7] did it give?
Answer: NA up to 250 uM

Question: With Fc1ccc(-c2csc3ncnc(N4CCN(c5nccs5)CC4)c23)cc1 [Compound 20] as the compound, how does the IC50 [1, 6] read?
Answer: 125 µM

Question: With c1ccc(-c2cc3c(N4CCN(c5nccs5)CC4)ncnc3s2)cc1 [Compound 21] as the compound, how does the IC50 [1, 6] read?
Answer: 50 µM

Question: With c1cnc(N2CCN(c3ncnc4sccc34)CC2)nc1 [Compound 24] as the compound, how does the “IC50 in FP assay with FLSN-MLL” value [1, 7] read?
Answer: NA up to 1 mM

Question: With CN1CCCN(c2ncnc3sccc23)CC1 [Compound 27] as the compound, how does the IC50 [1, 6] read?
Answer: 350 µM

Question: With Cc1cc2c(N3CCN(c4ccccc4)CC3)ncnc2s1 [Compound 29] as the compound, how does the “IC50 in FP assay with FLSN-MLL” value [1, 7] read?
Answer: NA up to 250 μM

Question: Which IC50 [1, 6] does the source give for c1csc(N2CCN(c3ncnc4sccc34)CC2)n1 [Compound 31] here?
Answer: 29.5 µM

Question: Which IC50 [1, 8] does the source give for CC(=O)N1c2ccccc2NC2=C(C(=O)CC(c3ccc(C(C)(C)C)cc3)C2)C1c1ccncc1 (stereo not shown) [Compound 33] here?
Answer: 29 µM

Question: And the IC50 ([2]; Table 3)?
Answer: 28 µM

Question: And the “binding to menin by NMR (STD, competition STD with MLL peptide)” value (shortened to “binding to menin by NMR”) [3]?
Answer: specific binding

Question: And the “toxicity in viability assay” value [4]?
Answer: no substantial signs of toxicity

Question: What about the “toxicity in viability assay” value [5] of the same compound?
Answer: no substantial signs of toxicity

Question: Which IC50 [1, 8] does the source give for CC1(C)CC(=O)C2=C(C1)Nc1ccccc1NC2c1ccc2c(c1)OCO2 (stereo not shown) [Compound 34] here?
Answer: 12 µM

Question: With COc1cc(C2Nc3ccccc3NC3=C2C(=O)CC(C)(C)C3)cc(OC)c1OC (stereo not shown) [Compound 35] as the compound, how does the IC50 [1, 8] read?
Answer: 35 µM

Question: How did the IC50 [1, 8] turn out when O=C1CC(c2ccc3c(c2)OCO3)CC2=C1C(c1cccnc1)Nc1ccccc1N2 (stereo not shown) [Compound 36] was run?
Answer: 63 µM

Question: Which IC50 [1, 8] does the source give for COc1ccc(C2CC(=O)C3=C(C2)Nc2ccccc2NC3c2cccnc2)cc1OC (stereo not shown) [Compound 37] here?
Answer: 100 µM

Question: For COc1ccc(C2CC(=O)C3=C(C2)Nc2ccccc2NC3c2ccccc2C)cc1OC (stereo not shown) [Compound 38], which IC50 [1, 8] is on record?
Answer: 115 µM

Question: Nc1cccc(-c2cccnc2)c1 [Compound 42] was tested. Which IC50 ([1]; FP competition, read-out: IC50 for inhibition of the menin-MLL interaction) did it give?
Answer: 50 µM

Question: And the IC50 [1, 9]?
Answer: 50 µM

Question: What about the “binding to menin by NMR” value [3] of the same compound?
Answer: Binding to menin was confirmed

Question: Which IC50 [1, 9] does the source give for NC(=O)Cc1nc(-c2ccc(F)cc2)cs1 [Compound 43] here?
Answer: 230 µM

Question: And the IC50 ([2]; Table 4)?
Answer: 200 µM

Question: What about the “binding to menin by NMR” value [3] of the same compound?
Answer: Binding to menin was confirmed

Question: Which IC50 [1, 9] does the source give for Cc1nn(-c2ccccc2)nc1C(N)=O [Compound 44] here?
Answer: 380 µM

Question: What about the “binding to menin by NMR” value [3] of the same compound?
Answer: Binding to menin was confirmed

Question: With OCc1ccc(-c2ccncc2)cc1 [Compound 45] as the compound, how does the IC50 [1, 9] read?
Answer: 510 µM

Question: What about the “binding to menin by NMR” value [3] of the same compound?
Answer: Binding to menin was confirmed

Question: With NC(=O)Cc1nc(-c2ccccc2)cs1 [Compound 46] as the compound, how does the IC50 [1, 9] read?
Answer: 2000 µM

Question: Which results are given for COc1ccc(-c2csc(CC(N)=O)n2)cc1 [Compound 47]?
Answer: IC50 [1, 9]: 67 µM; potency relative to the original hit (6G10) ([1]; inhibition of the menin-MLL interaction): about 4 fold; IC50 ([2]; Table 4): 33 µM

Question: For O=C(Cc1nc(-c2ccccc2)cs1)Nc1ccccc1 [Compound 48], which “D in FP assay” value ([1]; Table 4, at 0.5 mM) is on record?
Answer: 30%

Question: With NC(=O)Cc1nc(-c2ccc(Br)cc2)cs1 [Compound 49] as the compound, how does the “D in FP assay” value ([1]; Table 4, at 1.0 mM) read?
Answer: 10%

Question: Which IC50 [1, 9] does the source give for Cc1ccccc1NC(=O)Cc1nc(-c2ccc(F)cc2)cs1 [Compound 50] here?
Answer: 122 µM

Question: How did the IC50 [1, 9] turn out when COC(=O)Cc1nc(C2CCCCC2)cs1 [Compound 51] was run?
Answer: 1900 µM

Question: How did the IC50 [1, 9] turn out when O=C(Cc1nc(-c2ccc(F)cc2)cs1)N1CCOCC1 [Compound 52] was run?
Answer: 107 µM

Question: How did the IC50 [1, 9] turn out when O=C(Cc1nc(-c2ccc(Cl)cc2)cs1)NCc1ccccc1 [Compound 53] was run?
Answer: 1060 µM

Question: With NC(=O)Cc1nc(-c2cccc(Cl)c2)cs1 [Compound 54] as the compound, how does the IC50 [1, 9] read?
Answer: 137 µM

Question: Cc1ccc(-c2csc(CC(N)=O)n2)cc1C [Compound 56] was tested. Which “D in FP assay” value ([1]; Table 4, at 0.5 mM) did it give?
Answer: 30%

Question: For Cc1cc(C)c(-c2csc(CC(N)=O)n2)cc1C [Compound 57], which IC50 [1, 9] is on record?
Answer: 1200 µM

Question: How did the IC50 [1, 9] turn out when COc1ccc(-c2csc(CC(N)=O)n2)cc1Br [Compound 58] was run?
Answer: 80 µM

Question: For CCCC(=O)Nc1ccc(-c2nc(CC(N)=O)sc2C)cc1 [Compound 59], which IC50 [1, 9] is on record?
Answer: 830 µM

Question: CCc1cc2c(N3CCN(Cc4ccc(Cl)cc4)CC3)ncnc2s1 [Compound 60] was tested. Which IC50 [1, 10] did it give?
Answer: 30 µM

Question: CCc1cc2c(N3CCN(CC(=O)N4CCOCC4)CC3)ncnc2s1 [Compound 61] was tested. Which IC50 [1, 10] did it give?
Answer: 20 µM

Question: For CCc1cc2c(N3CCN(C(=O)c4ccccc4)CC3)ncnc2s1 [Compound 62], which IC50 [1, 10] is on record?
Answer: 10 µM

Question: How did the IC50 [1, 10] turn out when CCc1cc2c(N3CCN(c4nnc(C(F)(F)F)s4)CC3)ncnc2s1.Cl [Compound 66] was run?
Answer: 1.1 µM

Question: What about the “in vitro activity in FP assay relative to parent Compound 1” value ([1]; in words) of the same compound?
Answer: more potent activity

Question: CC(C)c1cc2c(N3CCN(c4nnc(C(F)(F)F)s4)CC3)ncnc2s1 [Compound 68] was tested. Which IC50 [1, 10] did it give?
Answer: 2.4 µM

Question: With CCc1cc2c(N3CCN(CC(=O)N4CCN(C)CC4)CC3)ncnc2s1 [Compound 69] as the compound, how does the IC50 [1, 10] read?
Answer: 16 µM

Question: How did the IC50 [1, 10] turn out when CC1(C)CN=C(N2CCN(c3ncnc4sc(Cc5ccccc5)cc34)CC2)S1 [Compound 71] was run?
Answer: 4.6 µM

Question: How did the IC50 [1, 10] turn out when CC1(C)CN=C(N2CCN(c3ncnc4sc(Br)cc34)CC2)S1 [Compound 72] was run?
Answer: 4.8 µM

Question: COc1ccc(CN2CCCN(c3ncnc4sc(C)c(C)c34)CC2)cc1 [Compound 73] was tested. Which IC50 [1, 10] did it give?
Answer: 20 µM

Question: For CCc1cc2c(N3CCCN(CC(=O)N4CCCC4)CC3)ncnc2s1 [Compound 74], which IC50 [1, 10] is on record?
Answer: 7 µM

Question: With CC(C)c1cc2c(N3CCCN(C4=NCC(C)(C)S4)CC3)ncnc2s1 [Compound 75] as the compound, how does the IC50 [1, 10] read?
Answer: 32 µM

Question: With CCc1cc2c(N3CCCN(C4=NCC(C)(C)S4)CC3)ncnc2s1 [Compound 76] as the compound, how does the IC50 [1, 10] read?
Answer: 6.3 µM

Question: How did the IC50 [1, 10] turn out when Cc1sc2ncnc(NC3CCN(Cc4ccccc4)CC3)c2c1C [Compound 77] was run?
Answer: 8.7 µM

Question: How did the IC50 [1, 10] turn out when c1ccc(CN2CCC(Nc3ncnc4sc5c(c34)CCC5)CC2)cc1 [Compound 78] was run?
Answer: 12 µM

Question: For CC1CCc2c(sc3ncnc(NC4CCN(Cc5ccccc5)CC4)c23)C1 (stereo not shown) [Compound 79], which IC50 [1, 10] is on record?
Answer: 20 µM

Question: Which IC50 [1, 10] does the source give for CCc1cc2c(NC3CCN(Cc4ccccc4)CC3)ncnc2s1 [Compound 80] here?
Answer: 1.3 µM

Question: With CCc1cc2c(NCC3CCN(Cc4cccc(C)c4)CC3)ncnc2s1 [Compound 81] as the compound, how does the IC50 [1, 10] read?
Answer: 40 µM

Question: How did the IC50 [1, 10] turn out when CCc1cc2c(NCC3CCN(Cc4ccc(F)cc4)CC3)ncnc2s1 [Compound 82] was run?
Answer: 4.4 µM

Question: With CCc1cc2c(NCCN(CC)Cc3ccccc3)ncnc2s1 [Compound 83] as the compound, how does the IC50 [1, 10] read?
Answer: 27 µM

Question: For CC(=O)N1c2ccccc2NC2=C(C(=O)CC(c3ccc(C)cc3)C2)C1c1cccnc1 (stereo not shown) [Compound 84], which IC50 [1, 8] is on record?
Answer: 100 µM

Question: Which IC50 [1, 8] does the source give for COc1ccc(C2CC(=O)C3=C(C2)Nc2ccccc2N(C(C)=O)C3c2cccnc2)cc1 (stereo not shown) [Compound 85] here?
Answer: 72 µM
